Experiments:
SU-DHL-4 cells = assay: Inhibitory effect on cell viability (Cell Counting Kit-8); format: cell-based; conditions: Homo sapiens, 72 hours culture with test compound, concentration showing 90% inhibition rate of cell viability
Procedure, shortened: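 IC90 corresponds to 90% loss of viability, measured as CCK-8 absorbance at 450 nm (2-3 h colour development). Compounds in 9 dilutions (0.1% DMSO) were applied for 72 h at 37° C to SU-DHL-4 lymphoma cells seeded at 2000/well in RPMI1640/10% FBS after 18-25 h preculture.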

[1] = system: DLBCL strain SU-DHL-4 subcutaneously transplanted tumor; assay: Antitumor effect on subcutaneous transplant model in SCID mouse; format: in vivo; conditions: 3 mg/kg intravenously 5 times a week for 2 weeks; male SCID mouse; versus vehicle administration group
Protocol: Antitumor Effect on Subcutaneous Transplant Model in SCID Mouse DLBCL Strain SU-DHL-4
1×10^7 cells of DLBCL strain SU-DHL-4 (Code No. ACC 495, Deutsche Sammlung von Mikroorganismen and Zellkulturen GmbH) suspended in a 1:1 mixed solution of PBS and matrigel (CORNING Code No. 354234) were transplanted subcutaneously to the ventral side of a male SCID mouse. Eighteen days after the transplantation, the body weight and the tumor diameter were measured, the tumor volume was calculated by the following formula, and the mice were divided into two groups (n=5) so that the average tumor volume of each group was equal. E-workbook software (ID Business Solusions) was used for grouping and measurement. […]
The test was conducted in two groups, a vehicle administration group and a compound 1a administration group (compound administration group). […] After the start of the test, body weight and tumor diameter were measured twice a week. The tumor volume on each measurement day was calculated by the above formula. The tumor growth rate (hereinafter referred to as V/V0) was calculated by dividing the tumor volume V on each measurement day by the tumor volume V0 on the test start day (Day 0). The T/C was calculated by dividing the average value (T) of V/V0 of each group by the average value (C) of the vehicle administration group.

[2] = Body weight in SU-DHL-4 subcutaneous transplant model; format: in vivo; conditions: 3 mg/kg intravenously 5 times a week for 2 weeks, male SCID mouse; for Body weight: mean of n=5
Protocol: 1×10^7 cells of DLBCL strain SU-DHL-4 (Code No. ACC 495, Deutsche Sammlung von Mikroorganismen and Zellkulturen GmbH) suspended in a 1:1 mixed solution of PBS and matrigel (CORNING Code No. 354234) were transplanted subcutaneously to the ventral side of a male SCID mouse. Eighteen days after the transplantation, the body weight and the tumor diameter were measured, the tumor volume was calculated by the following formula, and the mice were divided into two groups (n=5) so that the average tumor volume of each group was equal. E-workbook software (ID Business Solusions) was used for grouping and measurement. [Tumor volume (mm^3)]=[Tumor long diameter (mm)]×[Tumor short diameter (mm)]^2×0.5
The test was conducted in two groups, a vehicle administration group and a compound 1a administration group (compound administration group). To the compound 1a administration group, a solution of compound 1a dissolved in 30% DMSO/3% Tween 80/physiological saline so as to give a final concentration of 0.6 mg/mL was administered intravenously (tail vein) at 5 mL/kg (3 mg/kg) 5 times a week for 2 weeks. To the vehicle administration group, 30% DMSO/3% Tween 80/physiological saline was administered intravenously (tail vein) at 5 mL/kg on the same schedule as the compound 1a administration group. After the start of the test, body weight and tumor diameter were measured twice a week. The tumor volume on each measurement day was calculated by the above formula. The tumor growth rate (hereinafter referred to as V/V0) was calculated by dividing the tumor volume V on each measurement day by the tumor volume V0 on the test start day (Day 0). The T/C was calculated by dividing the average value (T) of V/V0 of each group by the average value (C) of the vehicle administration group.

[3] = system: MYC mRNA expression in SU-DHL-4 cells; assay: Suppressive effect on MYC mRNA expression (qRT-PCR); format: cell-based; conditions: test compound 100 nmol/L, 6 hours
Protocol: Suppressive Effect on MYC mRNA Expression
SU-DHL-4 cells were cultured at 37° C. using a carbon dioxide gas incubator (95% air, 5% CO2) in RPMI1640 medium in which FBS in an amount to give a final concentration of 10 vol % and PS in an amount to give a final concentration of 1 vol % were added. The cells were passaged twice a week at a volume of 20-40 mL so as to maintain a cell concentration of 1×10^6 cells/mL or less.
The cultured SU-DHL-4 cells were seeded at 6×10^5 cells/well in a transparent 6-well plate (Code No. 140675, Thermo Fisher Scientific). After seeding, the cells were precultured at 37° C. in a carbon dioxide gas incubator for 18 to 25 hours. Next, a 0.1 mmol/L DMSO solution of the test compound was prepared, diluted so that the concentration will be 200 times the final concentration in the RPMI1640 medium containing the above FBS and PS, and 1/200 volume of the diluted solution was added to each well. At this time, the final concentration of DMSO was adjusted to be 0.1 vol %. After adding the test compound, the cells were cultured at 37° C. in a carbon dioxide gas incubator for 6 hours.
Then, the cells were collected by centrifugation and used for extraction of mRNA. mRNA extraction from cells was performed using Maxwell® 16 LEV simplyRNA Purification Kits (Code No. AS1270, Promega). The mRNA recovery protocol was performed according to the manufacturer's recommended protocol attached to the kit.
0.001 mg of the recovered mRNA was converted to cDNA by SuperScript IV VILO Master Mix with ezDNase Enzyme (Code No. 11766050, Thermo Fisher Scientific). The cDNA conversion was performed, according to the manufacturer's recommended protocol attached to the kit, in 0.020 mL of the reaction solution, and GeneAmp® PCR System 9700 (Applied Biosystems) was used. The cDNA-converted sample was diluted 10-fold by adding 0.180 mL of RNase Free Water (Code No. 10977-023, Thermo Fisher Scientific) and used for quantitative real-time polymerase chain reaction (qRT-PCR). For the calibration curve of qRT-PCR, 0.08 mL of RNase Free Water was added to a cDNA sample using DMSO as a test compound for 5-fold dilution. Further, two 5-fold dilutions were prepared stepwise, and these three samples were used as the calibration curve samples.
The following reagents were used for qRT-PCR: TaqMan Gene Expression Assays, Inventoried (Primer probe: Code No. 4331182, Thermo Fisher Scientific, Assay ID: (i) MYC: Hs00153408_m1, (ii) ACTB: Hs01060665_g1, (iii) GAPDH: Hs04420697_g1, (iv) HPRT1: Hs02800695_m1); 2X TaqManR Fast Universal PCR Master Mix, no AmpEraseR UNG (Master Mix: Code No. 4367846, Thermo Fisher Scientific).
Primer probe (0.001 mL), Master Mix (0.010 mL), water (0.004 mL) and the diluted cDNA sample (0.005 mL) were mixed, and qRT-PCR analysis was performed. For qRT-PCR analysis, QuantStudio 7 Flex (Thermo Fisher Scientific) or 7500 Fast Real-Time PCR (Applied Biosystems) was used to measure in Fast mode and analyze. The expression level of the MYC gene was determined by quantifying ACTB, GAPDH, and HPRT1 as housekeeping genes and correcting by the following formula to calculate the suppression rate of (%) of MYC mRNA expression when the test compound was allowed to act at a concentration of 100 nmol/L. Corrected MYC expression=A/B • A: MYC expression level • B: Geometric mean of expression levels of ACTB, GAPDH and HPRT1
Using the corrected values, the suppression rate of MYC expression for the wells to which […] was calculated by the following formula. Suppression rate of MYC expression (%)=100−C/D×100 • C: Corrected MYC expression level in a well containing test compound • D: Corrected MYC expression level in a well to which test compound was not added

Q: For `CCC(=O)N1c2ccccc2[C@H](Nc2ccc(C(=O)NCCCNC(=O)c3ccc(N[C@@H]4C[C@H](C)N(C(=O)CC)c5ccccc54)cc3)cc2)C[C@@H]1C` (single isomer, unassigned) [Compound 1a, N,N′-(Propane-1,3-diyl)bis(4-{[(2S*,4R*)-2-methyl-1-propionyl-1,2,3,4-tetrahydroquinolin-4-yl]amino}benzamide)], which IC90 (SU-DHL-4 cells) is on record?
A: The IC90 was 5.21 nM.

Q: And the “Antitumor effect on SU-DHL-4 subcutaneously transplanted tumor (in words)” value [1]?
A: Its value is “strong antitumor effect”.

Q: And the “Weight loss (in words)” value [2]?
A: Its value is “no weight loss was observed”.

Q: What about the Body weight ([2]; Day 0) of the same molecule?
A: Its Body weight is 24.56 g.

Q: And the Body weight ([2]; Day 3)?
A: The Body weight was 25.36 g.

Q: What about the Body weight ([2]; Day 7) of the same molecule?
A: The Body weight was 25.44 g.

Q: What about the Body weight ([2]; Day 10) of the same molecule?
A: The Body weight was 25.14 g.

Q: What about the Body weight ([2]; Day 14) of the same molecule?
A: The Body weight was 25.74 g.

Q: What about the Body weight ([2]; Day 18) of the same molecule?
A: Its Body weight is 26.23 g.

Q: For `CCC(=O)N1c2ccccc2[C@H](Nc2ccc(NC(=O)CCCC(=O)Nc3ccc(Cn4c(C(=O)OCCN(C)C)cc5c4CCCC5=O)cc3)cc2)C[C@@H]1C` [Compound 15a, 2-(Dimethylamino)ethyl 1-(4-(5-((4-(((2S,4R)-2-methyl-1-propionyl-1,2,3,4-tetrahydroquinolin-4-yl)amino)phenyl)amino)-5-oxopentanamide)benzyl)-4-oxo-4,5,6,7-tetrahydro-1H-indole-2-carboxylate], which “Suppression rate of MYC mRNA expression” value [3] is on record?
A: The value was 97.6%.

Q: With `Cc1sc2c(c1C)C(c1ccc(Cl)cc1)=N[C@@H](CC(=O)NCCOCCOCCOCCOCCOCCOCCOCCNC(=O)C[C@@H]1N=C(c3ccc(Cl)cc3)c3c(sc(C)c3C)-n3c(C)nnc31)c1nnc(C)n1-2` [compound 2, reference compound] as the molecule, how does the “Suppression rate of MYC mRNA expression” value [3] read?
A: Its value is 57.7%.
